The structures appear in SMILES notation.

The target in one assay is T1, p38 alpha (Homo sapiens, UniProt Q16539).
T1 construct: purchased Invitrogen PV3304
Nature of the assay: P38 alpha enzyme inhibition assay (Alphascreen kinase activity assay). The settings on record: 100 pM p38 alpha, 2 hours preincubation at 25° C., 250 μM ATP, ATF-2 fusion protein; read-out: p38α inhibition. The format is biochemical. In short, it runs like this: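 100 pM p38 alpha preincubated 2 h at 25 °C with compound and 0.3 μg/ml ATF-2 fusion substrate (HEPES pH 7.5, MgCl2, 1% DMSO). Reaction started with 250 μM ATP, run 1 h at 25 °C, stopped with EDTA; phospho-ATF2 detected by AlphaScreen luminescence. IC50 from concentration-response curves.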
Background: In Alpha technology, singlet oxygen from a donor bead excites a nearby acceptor bead.

The subject of assay [1] is Peripheral Blood Mononuclear Cells (PBMCs), TNFα release. Nature of the assay: LPS-stimulated PBMC TNFα release assay. Format: cell-based. As to conditions: human PBMC, LPS (10 ng/ml), 18 h, compound 1 h before LPS; read-out: LPS-stimulated PBMC TNFα release inhibition. A digest of the protocol:
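Human PBMCs from healthy donors, serum-starved 3 h, then pre-incubated 1 h at 37 °C with compound in 1% FBS medium before LPS (10 ng/ml) for 18 h. Supernatant TNFα measured by MSD; IC50 from dose-response as % inhibition of control, at least three experiments.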

T1 sequence (Q16539 whole entry): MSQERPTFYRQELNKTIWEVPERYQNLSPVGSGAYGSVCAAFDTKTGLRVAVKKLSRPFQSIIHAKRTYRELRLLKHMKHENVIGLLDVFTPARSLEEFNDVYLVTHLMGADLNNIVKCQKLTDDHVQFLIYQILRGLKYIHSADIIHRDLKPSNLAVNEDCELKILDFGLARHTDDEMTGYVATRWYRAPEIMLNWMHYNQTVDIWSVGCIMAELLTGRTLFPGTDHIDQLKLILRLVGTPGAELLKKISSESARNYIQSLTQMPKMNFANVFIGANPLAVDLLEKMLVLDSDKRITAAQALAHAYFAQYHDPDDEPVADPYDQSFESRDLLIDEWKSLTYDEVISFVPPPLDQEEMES

`CN(CCO)CCNC(=O)c1nc(NC(=O)N[C@H]2CC[C@@H](Oc3ccc4nnc([C@@H]5COCCN5C)n4c3)c3ccccc32)cc(C(C)(C)C)n1` [Example 215, 4-(tert-Butyl)-N-(2-((2-hydroxyethyl)(methyl)amino)ethyl)-6-(3-((1S,4R)-4-((3-((R)-4-methylmorpholin-3-yl)-[1,2,4]triazolo[4,3-a]pyridin-6-yl)oxy)-1,2,3,4-tetrahydronaphthalen-1-yl)ureido)pyrimidine-2-carboxamide]: the IC50 is 1 to 10 nM at p38 alpha and above 5 nM in assay [1].

(Values after US10364245B2 (CHIESI FARMACEUTICI S.p.A., priority 2017, dated 2019).)
